# Data published in US20220348569A1 (priority 2021, published 2022).
# “Also recorded” adds a separate entry of the source. Like-named read-outs stand apart in the source and are kept apart here.
# Experiments:
# [1] = tested on: SARS-CoV-2 full Spike wild-type (Wuhan-Hu-1) mediated cell-to-cell fusion; assay: cells; assay type: cell-based; conditions: for inhibition at 0.25 µM: Severe acute respiratory syndrome coronavirus 2, Jurkat, at 250 nM, read-out: inhibitory activity of SARS-CoV-2 mediated cell-to-cell fusion
# [2] = tested on: SARS-CoV-2 (US_WA-1/2020); assay type: cell-based
# SARS-CoV-2 pseudovirus [3] = assay: microbe, parasite or virus in culture; assay type: cell-based; conditions: for IC50: Severe acute respiratory syndrome-related coronavirus, read-out: IC50s against SARS-CoV-2 pseudovirus over the cell lines
# SARS-CoV pseudovirus [4] = assay: microbe, parasite or virus in culture; assay type: cell-based; conditions: Severe acute respiratory syndrome coronavirus, A549-ACE2
# MERS-CoV pseudovirus [5] = assay: microbe, parasite or virus in culture; assay type: cell-based; conditions: Middle East respiratory syndrome-related coronavirus, Huh-7
# MERS-CoV pseudovirus [6] = assay: microbe, parasite or virus in culture; assay type: cell-based; conditions: Middle East respiratory syndrome-related coronavirus, MRC5
# [7] = biological target: SARS-CoV-2 spike (active trimer) His-tag (Severe acute respiratory syndrome coronavirus 2, UniProt P0DTC2); assay type: binding
# SARS-CoV pseudovirus [8] = assay: microbe, parasite or virus in culture; assay type: cell-based; conditions: Severe acute respiratory syndrome coronavirus, 293T/ACE2
# SARS-CoV pseudovirus [9] = assay: microbe, parasite or virus in culture; assay type: cell-based; conditions: Severe acute respiratory syndrome coronavirus, HT-1080
# in vivo = conditions: female, rat; for AUC(0-t): Sprague Dawley
# [10] = rat, in vivo
# in vitro [11] = conditions: human
# SARS-CoV pseudovirus [12] = assay type: cell-based
# MERS-CoV pseudovirus [13] = assay: microbe, parasite or virus in culture; assay type: cell-based; conditions: Middle East respiratory syndrome-related coronavirus, read-out: IC50 against MERS-CoV pseudovirus
# SARS-CoV-2 pseudovirus [14] = assay: microbe, parasite or virus in culture; assay type: cell-based; conditions: Severe acute respiratory syndrome-related coronavirus, A549-ACE2
# in vitro [15] = conditions: human; remark: listed apart in the source
# in vitro [16] = conditions: human; remark: listed apart in the source
# in vitro [17] = conditions: human, Caco-2, pH 7.4
# [18] = both, human, microsomes
# in vitro [19] = conditions: both, human, plasma
# [20] = female, Sprague Dawley, iv, 5 mg/kg
smiles,measurement,setting,value
O=C(O)c1cccc(-c2ccc(/C=C3\SC(=S)N(CCc4ccccc4)C3=O)o2)c1 [Compound 2],inhibition of SARS-CoV-2 mediated cell-to-cell fusion (in words),[1],potently inhibited the cell-to-cell fusion even at the lowest dose
same,inhibition at 0.25 µM,[1],62 to 79%
same,IC100,[2],1.25 µM
same,antiviral activity against SARS-CoV-2 pseudovirus (in words),SARS-CoV-2 pseudovirus [3],low nanomolar activity; also recorded: best antiviral potency; also recorded: low nM IC50
same,IC50,SARS-CoV-2 pseudovirus [3],22.8 to 58 nM
same,IC50,SARS-CoV pseudovirus [4],98 to 157 nM
same,IC50,MERS-CoV pseudovirus [5],95 to 158 nM
same,IC50,MERS-CoV pseudovirus [6],76.5 to 123 nM
same,ka,[7],872 M⁻¹ s⁻¹
same,IC50,SARS-CoV pseudovirus [8],13.8 to 17 nM
same,IC50,SARS-CoV pseudovirus [9],19.3 to 39 nM
same,AUC(0-t),"in vivo; iv, 5 mg/kg",17100 ng·h/mL
same,AUC(0-t),"in vivo; po, 10 mg/kg",319 ng·h/mL
same,half-life,"in vivo; Sprague-Dawley, iv, 5 mg/kg",3.5 to 3.9 h
same,C0,[10]; [20],1710.87 ng/mL
same,CLobs,[10]; [20],0.00027 mg/kg/(ng/mL)/hr
same,MRT0-inf_obs,[10]; [20],5.09 h
same,Vss_obs,[10]; [20],0.0014 mg/kg/(ng/mL)
same,Vss_obs,"[10]; female, Sprague Dawley, po, 10 mg/kg",0 mg/kg/(ng/mL)
same,F %,"[10]; female, Sprague-Dawley",0.9%
same,MRT0-inf_obs,"[10]; female, Sprague-Dawley, po, 10 mg/kg",7.28 h
same,Vz/F_obs,"[10]; po, 10 mg/kg",0.1759 mg/kg/(ng/mL)
O=C(O)c1cc(-c2ccc(/C=C3\SC(=S)N(CCc4ccccc4)C3=O)o2)ccc1F [Compound 3],CC50,in vitro [11],45000 ± 5000 nM
same,IC100,[2],2.5 µM
same,antiviral activity against SARS-CoV-2 pseudovirus (in words),SARS-CoV-2 pseudovirus [3],somewhat reduced activity
same,"selectivity index (SI, ratio CC50/IC50) over the cell lines",SARS-CoV-2 pseudovirus [3],750->1563
same,IC50,SARS-CoV-2 pseudovirus [3],60.1 to 120 nM
same,IC50,SARS-CoV pseudovirus [4],98 to 157 nM
same,IC50,MERS-CoV pseudovirus [5],95 to 158 nM
same,IC50,MERS-CoV pseudovirus [6],76.5 to 123 nM
same,IC50,SARS-CoV pseudovirus [8],13.8 to 17 nM
same,IC50,SARS-CoV pseudovirus [9],19.3 to 39 nM
Cc1ccc(-c2ccc(/C=C3\SC(=S)N(CCc4ccccc4)C3=O)o2)cc1C(=O)O [Compound 4],inhibition of SARS-CoV-2 mediated cell-to-cell fusion (in words),[1],potently inhibited the cell-to-cell fusion even at the lowest dose
same,inhibition at 0.25 µM,[1],62 to 79%
same,IC100,[2],2.5 µM
same,antiviral activity against SARS-CoV-2 pseudovirus (in words),SARS-CoV-2 pseudovirus [3],low nanomolar activity; also recorded: excellent antiviral activity
same,IC50,SARS-CoV-2 pseudovirus [3],26 to 73 nM
same,IC50,MERS-CoV pseudovirus [5],95 to 158 nM
same,IC50,MERS-CoV pseudovirus [6],76.5 to 123 nM
Cc1c(C(=O)O)cccc1-c1ccc(/C=C2\SC(=S)N(CCc3ccccc3)C2=O)o1 [Compound 5],inhibition of SARS-CoV-2 mediated cell-to-cell fusion (in words),[1],only inhibited the SARS-CoV-2 mediated cell-to-cell fusion at the higher dose (4 μM)
same,activity against SARS-CoV pseudovirus (in words),SARS-CoV pseudovirus [12],poor activity
same,IC100,[2],>10 µM
same,IC50,MERS-CoV pseudovirus [13],> 2000 nM
same,IC50,SARS-CoV-2 pseudovirus [14],> 2000 nM
CCc1ccc(-c2ccc(/C=C3\SC(=S)N(CCc4ccccc4)C3=O)o2)cc1C(=O)O [Compound 6],CC50,in vitro [11],40000 ± 6000 nM
same,IC100,[2],>10 µM
same,antiviral activity against SARS-CoV-2 pseudovirus (in words),SARS-CoV-2 pseudovirus [3],slightly lower antiviral activity
same,IC50,MERS-CoV pseudovirus [13],< 1000 nM
O=C(O)c1cccc(-c2ccc(/C=C3\SC(=S)N(CCc4ccccc4)C3=O)o2)c1F [Compound 7],IC100,[2],5 µM
same,IC50,MERS-CoV pseudovirus [13],< 1000 nM
O=C(O)c1cc(-c2ccc(/C=C3\SC(=S)N(CCc4ccccc4)C3=O)o2)ccc1Br [Compound 8],IC100,[2],5 µM
same,antiviral activity against SARS-CoV-2 pseudovirus (in words),SARS-CoV-2 pseudovirus [3],excellent antiviral activity
same,IC50,MERS-CoV pseudovirus [13],< 1000 nM
Cc1c(C(=O)O)cncc1-c1ccc(/C=C2\SC(=S)N(CCc3ccccc3)C2=O)o1 [Compound 9],IC100,[2],2.5 µM
"O=C1C(=Cc2ccc(-c3ccc(Cl)cc3)o2)SC(=S)N1CCc1ccccc1 [Compound 10, 5-((5-(4-chlorophenyl)furan-2-yl)methylene)-3-phenethyl-2-thioxothiazolidin-4-one]",antiviral activity against SARS-CoV-2 pseudovirus (in words),SARS-CoV-2 pseudovirus [3],no antiviral potency at the highest dose tested
same,IC50,SARS-CoV-2 pseudovirus [3],> 2000 nM
NS(=O)(=O)c1ccc(-c2ccc(/C=C3\SC(=S)N(CCc4ccccc4)C3=O)o2)cc1 [Compound 11],CC50,in vitro [11],13300 ± 2000 nM
same,IC50,MERS-CoV pseudovirus [5],13.2 ± 3.7 nM
O=C1NC(=S)S/C1=C\c1ccc(-c2ccc(Cl)c(C(=O)O)c2)o1 [Compound 12],antiviral activity against SARS-CoV-2 pseudovirus (in words),SARS-CoV-2 pseudovirus [3],did not display any activity at the highest dose tested
CCN1C(=O)/C(=C/c2ccc(-c3cccc(C(=O)O)c3)o2)SC1=S [Compound 13],CC50,in vitro [11],74000 ± 3000 nM
same,CC50,in vitro [15],> 100000 nM
COCCN1C(=O)/C(=C/c2ccc(-c3ccc(Cl)c(C(=O)O)c3)o2)SC1=S [Compound 14],CC50,in vitro [11],81000 ± 1000 nM
same,CC50,in vitro [15],> 100000 nM
CN1C(=O)/C(=C/c2ccc(-c3cccc(C(=O)O)c3)o2)SC1=S [Compound 15],CC50,in vitro [11],53000 ± 8000 nM
same,CC50,in vitro [15],> 100000 nM
O=C1/C(=C/c2ccc(-c3ccccc3)o2)SC(=S)N1CCc1ccccc1 [Compound 16],CC50,in vitro [11],75000 ± 7000 nM
same,CC50,in vitro [15],40000 ± 2000 nM
C=CCN1C(=O)/C(=C/c2ccc(-c3cccc(C(=O)O)c3)o2)SC1=S [Compound 17],CC50,in vitro [11],> 100000 nM
same,CC50,in vitro [15],> 100000 nM
O=C(O)c1cc(-c2ccc(/C=C3\SC(=S)N(C4CCCCC4)C3=O)o2)ccc1Cl [Compound 18],CC50,in vitro [11],> 100000 nM
same,antiviral activity against SARS-CoV-2 pseudovirus (in words),SARS-CoV-2 pseudovirus [3],excellent antiviral activity; also recorded: low nM IC50
same,CC50,in vitro [16],> 100000 nM
same,IC50,MERS-CoV pseudovirus [5],10.5 ± 0.9 nM
same,CC50,in vitro [15],> 100000 nM
C=CCN1C(=O)/C(=C/c2ccc(-c3cc(C(=O)O)cc(C(=O)O)c3)o2)SC1=S [Compound 19],CC50,in vitro [11],> 100000 nM
same,CC50,in vitro [15],> 100000 nM
C=CCN1C(=O)/C(=C/c2ccc(-c3cccc(C(=O)O)c3C)o2)SC1=S [Compound 20],CC50,in vitro [11],> 100000 nM
same,CC50,in vitro [16],84000 ± 4000 nM
same,IC50,MERS-CoV pseudovirus [5],340 ± 112 nM
same,CC50,in vitro [15],> 100000 nM
O=C1NC(=S)S/C1=C\c1ccc(-c2ccc(C(=O)O)c(Cl)c2)o1 [Compound 21],CC50,in vitro [11],> 100000 nM
same,CC50,in vitro [15],> 100000 nM
Cc1ccc(-c2ccc(/C=C3\SC(=S)N(CC(C)C)C3=O)o2)cc1C(=O)O [Compound 22],CC50,in vitro [11],68000 ± 4000 nM
same,CC50,in vitro [15],70000 ± 4000 nM
C#CCN1C(=O)/C(=C/c2ccc(-c3ccc(Cl)c(C(=O)O)c3)o2)SC1=S [Compound 23],antiviral activity against SARS-CoV-2 pseudovirus (in words),SARS-CoV-2 pseudovirus [3],did not display any activity at the highest dose tested
CCN1C(=O)/C(=C/c2ccc(-c3ccc(Cl)c(C(=O)O)c3)o2)SC1=S [Compound 24],CC50,in vitro [11],78000 ± 3000 nM
same,CC50,in vitro [16],~100000 nM
same,IC50,MERS-CoV pseudovirus [5],88 ± 13 nM
same,CC50,in vitro [15],> 100000 nM
O=C(O)c1cccc(-c2ccc(/C=C3\SC(=S)N(C4CCCCC4)C3=O)o2)c1 [Compound 25],CC50,in vitro [11],> 100000 nM
same,antiviral activity against SARS-CoV-2 pseudovirus (in words),SARS-CoV-2 pseudovirus [3],displayed antiviral potency
same,CC50,in vitro [16],> 100000 nM
same,IC50,MERS-CoV pseudovirus [5],247 ± 47 nM
same,CC50,in vitro [15],> 100000 nM
N=C1NC(=O)/C(=C/c2ccc(-c3ccc(Cl)c(C(=O)O)c3)o2)S1 [Compound 26],CC50,in vitro [11],> 100000 nM
CN1C(=O)/C(=C/c2ccc(-c3cccc(C(=O)O)c3)o2)SC1=S [Compound 27],CC50,in vitro [16],> 100000 nM
same,IC50,MERS-CoV pseudovirus [5],96 ± 14 nM
O=C1NC(=S)S/C1=C\c1ccc(-c2ccc(C(=O)O)cc2)o1 [Compound 28],antiviral activity against SARS-CoV-2 pseudovirus (in words),SARS-CoV-2 pseudovirus [3],loses the inhibitory activity; also recorded: showed no inhibition
CC(C)NCC(O)COc1cccc2ccccc12 (centres unmarked) [Propranolol],Papp,in vitro [17],19.7 ×10⁻⁶ cm/s
"C[C@]12CC[C@H]3[C@@H](CCC4=CC(=O)CC[C@@]43C)[C@@H]1CC[C@@H]2O [Testosterone, reference compound]",half-life,[18],0.188 h
CC(=O)CC(c1ccccc1)c1c(O)c2ccccc2oc1=O (centres unmarked) [Warfarin],fraction unbound,in vitro [19],0.018
